Experimental data reported in US4409314A, “Light-sensitive compounds, light-sensitive mixture, and light-sensitive copying material prepared therefrom” (Hoechst Aktiengesellschaft, priority 1980, dated 1983).
Where two headings read alike, the source gives them in different places.

Columns and labels:
[1] = type: physicochemical; details: for Solubility (%): 4320 min; for Appearance of solution in ethylene glycol monomethyl ether: no precipitations even after 3 days
Experimental: (§1) In each case, 1 to 4 g of crystalline diazo compound were stirred in 25 g of ethylene glycol monomethyl ether, which is the most important solvent in coating technology, for 2 hours at room temperature and the mixture was allowed to stand for a further 70 hours without stirring, in order to complete the crystallization of possible amorphous constituents. The mixture was then filtered off with suction, and the filter residue was washed successively with 10 ml of methanol and 10 ml of ether, dried in vacuo, and its weight was determined. The solubilities in ethylene glycol monomethyl ether, listed in Table 3, were calculated from the difference relative to the quantity employed.

[2] = Solubility in n-butyl acetate; type: physicochemical; details: 1 g crystalline diazo compound stirred 2 hours in 25 g n-butyl acetate
Experimental: as §1
In a further widely used solvent, namel
1 g of the crystalline diazo compound was stirred for 2 hours in 25 g of
nbutyl acetate. The mixtures were then worked up as in Example 1.

[3] = 3 g of compound in 25 g solvent

[N-]=[N+]=C1C=Cc2c(cccc2S(=O)(=O)Oc2ccc(C(=O)c3ccccc3)c(OS(=O)(=O)c3cccc4c3C=CC(=[N+]=[N-])C4=O)c2OS(=O)(=O)c2cccc3c2C=CC(=[N+]=[N-])C3=O)C1=O [V, tris-1,2-naphthoquinone-2-diazide-5-sulfonic acid ester of 2,3,4-trihydroxy-benzophenone, reference compound]
Solubility (%) [1]: 1.0% | Solubility (%) in butyl acetate [2]: 0.50%

CCCCCCCCCCCCOC(=O)c1ccc(OS(=O)(=O)c2cccc3c2C=CC(=[N+]=[N-])C3=O)cc1OS(=O)(=O)c1cccc2c1C=CC(=[N+]=[N-])C2=O [Compound 17]
Solubility (%) [1]: 7.5% | Solubility (%) in butyl acetate [2]: 2.03%

CC(C)CCOC(=O)c1ccc(OS(=O)(=O)C2=CC(=[N+]=[N-])C(=O)c3ccccc32)cc1OS(=O)(=O)C1=CC(=[N+]=[N-])C(=O)c2ccccc21 [Compound 11]
Solubility (%) [1]: 2.3%

COC(=O)c1ccc(OS(=O)(=O)c2cccc3c2C=CC(=[N+]=[N-])C3=O)cc1OS(=O)(=O)c1cccc2c1C=CC(=[N+]=[N-])C2=O [Compound 10]
Solubility (%) [1]: 0.87%

CC(CC(=O)c1ccc(OS(=O)(=O)c2cccc3c2C=CC(=[N+]=[N-])C3=O)cc1OS(=O)(=O)c1cccc2c1C=CC(=[N+]=[N-])C2=O)CC(C)(C)C (stereo not shown) [Compound 5]
Appearance of solution in ethylene glycol monomethyl ether [1, 3]: clear | Solubility (%) [1]: > 10.7%

CCCCCCCCCCCCCCCC(=O)c1ccc(OS(=O)(=O)c2cccc3c2C=CC(=[N+]=[N-])C3=O)cc1OS(=O)(=O)c1cccc2c1C=CC(=[N+]=[N-])C2=O [Compound 7]
Solubility (%) in butyl acetate [2]: 1.03%

CCOCCOC(=O)c1cc(OS(=O)(=O)c2cccc3c2C=CC(=[N+]=[N-])C3=O)cc(OS(=O)(=O)c2cccc3c2C=CC(=[N+]=[N-])C3=O)c1 [Compound 16]
Solubility (%) [1]: 5.0%

CCCCC(CC)C(=O)c1ccc(OS(=O)(=O)C2=CC(=[N+]=[N-])C(=O)c3ccccc32)cc1OS(=O)(=O)C1=CC(=[N+]=[N-])C(=O)c2ccccc21 (stereo not shown) [Compound 4]
Solubility (%) [1]: 4.3%

CCCCCCCCCCCCCCCC(=O)c1ccc(OS(=O)(=O)C2=CC(=[N+]=[N-])C(=O)c3ccccc32)cc1OS(=O)(=O)C1=CC(=[N+]=[N-])C(=O)c2ccccc21 [Compound 8]
Solubility (%) in butyl acetate [2]: 1.75%

CC(CC(=O)c1ccc(OS(=O)(=O)C2=CC(=[N+]=[N-])C(=O)c3ccccc32)cc1OS(=O)(=O)C1=CC(=[N+]=[N-])C(=O)c2ccccc21)CC(C)(C)C (stereo not shown) [Compound 6]
Solubility (%) [1]: 10.5%

CC(C)CCOC(=O)c1ccc(OS(=O)(=O)c2cccc3c2C=CC(=[N+]=[N-])C3=O)c(OS(=O)(=O)c2cccc3c2C=CC(=[N+]=[N-])C3=O)c1 [Compound 13]
Solubility (%) [1]: 4.7%

CCOCCOC(=O)c1ccc(OS(=O)(=O)c2cccc3c2C=CC(=[N+]=[N-])C3=O)c(OS(=O)(=O)c2cccc3c2C=CC(=[N+]=[N-])C3=O)c1 [Compound 14]
Solubility (%) [1]: 4.3%

CCCCCCCCCCCCOC(=O)c1cc(OS(=O)(=O)c2cccc3c2C=CC(=[N+]=[N-])C3=O)cc(OS(=O)(=O)c2cccc3c2C=CC(=[N+]=[N-])C3=O)c1 [Compound 18]
Solubility (%) [1]: 4.6%

CCCCC(CC)C(=O)c1ccc(OS(=O)(=O)c2cccc3c2C=CC(=[N+]=[N-])C3=O)cc1OS(=O)(=O)c1cccc2c1C=CC(=[N+]=[N-])C2=O (stereo not shown) [Compound 3]
Appearance of solution in ethylene glycol monomethyl ether ([1]; 4 g of compound in 25 g solvent): clear | Solubility (%) [1]: > 13.8%

CC(=O)c1ccc(OS(=O)(=O)c2cccc3c2C=CC(=[N+]=[N-])C3=O)cc1OS(=O)(=O)c1cccc2c1C=CC(=[N+]=[N-])C2=O [Compound 1]
Solubility (%) [1]: 1.03%

CCCCC(=O)c1ccc(OS(=O)(=O)c2cccc3c2C=CC(=[N+]=[N-])C3=O)cc1OS(=O)(=O)c1cccc2c1C=CC(=[N+]=[N-])C2=O [Compound 2]
Appearance of solution in ethylene glycol monomethyl ether [1, 3]: clear | Solubility (%) [1]: > 10.7%

CCOCCOC(=O)c1ccc(OS(=O)(=O)C2=CC(=[N+]=[N-])C(=O)c3ccccc32)c(OS(=O)(=O)C2=CC(=[N+]=[N-])C(=O)c3ccccc32)c1 [Compound 15]
Solubility (%) [1]: 3.7%
